Assay results as given in patent publication US20190054194A1, “System and Method For Evaluation of Subjects Using Magnetic Resonance Imaging and Oxygen-17” (Case Western Reserve University, priority 2017, published 2019).

Assay: dynamic golden-angle 17O-MRI of H2^17O uptake and washout in brain after intravenous bolus injection (control and glioblastoma mice)
Assay type: in vivo
Text: In one configuration, tumor and brain may be differentiated with the present methods, such as to assess the presence of a glioblastoma. […] For example, the method may allow for differentiation between subjects with a moderate tumor volume (<30%, GBM-M) and those with a large tumor volume (>30%, GBM-L). Once image reconstruction has been completed, ^17O images may be coregistered with the T2-weighted ^1H images. Tumor areas may show higher signal intensity in T2-weighted ^1H images due to having a longer T2 than normal brain tissue. Appropriate regions of interest (ROIs) that encompass the tumor and normal brain tissue may be drawn manually from T2-weighted ^1H images, or automatic segmentation routines may be used to define the ROIs. Total tumor and brain volumes may be calculated by adding the tumor and brain areas in all of the image slices. The percentage of tumor volume may then be calculated as the tumor volume divided by total brain volume.
^17O signal may be normalized by the corresponding natural abundance ^17O signal acquired before H2^17O injection or administration. Peak H2^17O uptake may be identified as the maximal signal intensity following H2^17O administration. A normalized time course of the ^17O signal from peak uptake to the end of the measurement may be fit to a monoexponential function in a pixel-wise fashion to generate the maps of peak and steady-state H2^17O uptake, as well as its washout rate. Mean values for each ROI may be calculated for each map. In tissue with no obvious washout phase or even continued accumulation of H2^17O after the injection, washout rate may be set to zero, while peak and steady-state H2^17O uptake may be calculated as the normalized ^17O signals immediately after H2^17O injection and at the end of measurement, respectively.

[1] = GBM-L mice (large tumor volume >30%)

H2^17O uptake in normal brain tissue [1]: significantly reduced H2^17O uptake | H2^17O washout in normal brain tissue [1]: prolonged washout | H2^17O uptake in tumors (GBM-M mice (moderate tumor volume <30%)): reduced H2^17O uptake | H2^17O uptake and washout (17O signal kinetics) in brain (control mice, after H2^17O injection): rapid uptake and washout
SMILES: [17OH2] [H2^17O, ^17O-labeled water]
H2^17O washout in tumors [1]: no obvious washout phase, or even continuous accumulation of H2^17O after injection
